# Assays:
# Test in all cases: KINOMEscan kinase binding assay
# [1] = tested on: FGFR3(G697C); conditions: at 1 μM
# Method in brief: (§1)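 Immobilized-ligand competition, qPCR-quantified. Kinase sources: T7 phage lysates from BL21-type E. coli, or HEK-293 expression plus DNA tag. Results expressed as % Ctrl (lower = stronger binding) and as Kd from capture versus concentration curves.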
# [2] = tested on: CTK; conditions: at 1 μM
# Method in brief: as §1
# [3] = tested on: TIE1; conditions: at 1 μM
# Method in brief: as §1
# [4] = tested on: INSRR; conditions: at 1 μM
# Method in brief: as §1
# [5] = tested on: ITK; conditions: at 1 μM
# Method in brief: as §1
# [6] = tested on: YES; conditions: at 1 μM
# Method in brief: as §1
# [7] = tested on: ABL1-nonphosphorylated; conditions: at 1 μM
# Method in brief: as §1
# [8] = tested on: FLT3-autoinhibited; conditions: at 1 μM
# Method in brief: as §1
# [9] = tested on: TYRO3; conditions: at 1 μM
# Method in brief: as §1
# [10] = tested on: FES; conditions: at 1 μM
# Method in brief: as §1
# [11] = tested on: EGFR(S752-1759del); conditions: at 1 μM
# Method in brief: (§2)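 Steps: biotinylated ligand loaded onto streptavidin beads (30 min RT), then biotin-blocked; kinase, beads and compound combined in SeaBlock/PBS/Tween/DTT buffer for 1 h RT; beads washed; kinase eluted with 0.5 μM non-biotinylated ligand; eluate quantified by qPCR.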
# [12] = tested on: TRKC; conditions: at 1 μM
# Method in brief: as §1
# [13] = tested on: TYK2(JH2domain-pseudokinase); conditions: for % Ctrl: TYK2(JH2domain-pseudokinase), at 1 μM; for Kd: read-out: TYK2(JH2 domain-pseudokinase) Kd
# Method in brief: as §2
# [14] = tested on: LTK; conditions: at 1 μM
# Method in brief: as §1
# [15] = tested on: JAK2(JH1domain-catalytic); conditions: for % Ctrl: JAK2(JH1domain-catalytic), at 1 μM; for Kd: read-out: JAK2(JH1 domain-catalytic) Kd
# Method in brief: as §2
# [16] = tested on: BTK; conditions: at 1 μM
# Method in brief: as §1
# [17] = tested on: EGFR(L858R, T790M); conditions: at 1 μM
# Method in brief: as §2
# [18] = tested on: EPHB4; conditions: at 1 μM
# Method in brief: as §1
# [19] = tested on: BRK; conditions: at 1 μM
# Method in brief: as §1
# [20] = tested on: ROS1; conditions: at 1 μM
# Method in brief: as §1
# [21] = tested on: EGFR(E746-A750del); conditions: at 1 μM
# Method in brief: as §1
# [22] = tested on: VEGFR2; conditions: at 1 μM
# Method in brief: as §1
# [23] = tested on: FLT3(R834Q); conditions: at 1 μM
# Method in brief: as §1
# [24] = tested on: CSF1R-autoinhibited; conditions: at 1 μM
# Method in brief: as §1
# [25] = tested on: TEC; conditions: at 1 μM
# Method in brief: as §1
# [26] = tested on: ABL1(F317L)-phosphorylated; conditions: at 1 μM
# Method in brief: as §1
# [27] = tested on: LCK; conditions: at 1 μM
# Method in brief: as §1
# [28] = tested on: FLT4; conditions: at 1 μM
# Method in brief: as §1
# [29] = tested on: ABL1(Q252H)-nonphosphorylated; conditions: at 1 μM
# Method in brief: as §1
# [30] = tested on: BMX; conditions: at 1 μM
# Method in brief: as §1
# [31] = tested on: BLK; conditions: at 1 μM
# Method in brief: as §1
# [32] = tested on: FLT3; conditions: at 1 μM
# Method in brief: as §1
# [33] = tested on: MERTK; conditions: at 1 μM
# Method in brief: as §1
# [34] = tested on: LYN; conditions: at 1 μM
# Method in brief: as §1
# [35] = tested on: SYK; conditions: at 1 μM
# Method in brief: as §1
# [36] = tested on: ABL1(Y253F)-phosphorylated; conditions: at 1 μM
# Method in brief: as §1
# [37] = tested on: FLT3(K663Q); conditions: at 1 μM
# Method in brief: as §1
# [38] = tested on: KIT(A829P); conditions: at 1 μM
# Method in brief: as §1
# [39] = tested on: HCK; conditions: at 1 μM
# Method in brief: as §1
# [40] = tested on: DDR2; conditions: at 1 μM
# Method in brief: as §1
# [41] = tested on: TIE2; conditions: at 1 μM
# Method in brief: as §1
smiles,measurement,setting,value
"Cc1cc2c([nH]1)/C=C1\C(=O)Nc3ccc(cc31)-c1c(nn(C)c1C)OCCCN(C)C2=O [Cpd. 1, [3a(4)Z]-6,9,15,16-tetramethyl-9,10,11,12-tetrahydro-15H-1,17-(ethanediylidene)pyrazolo[4,3-n]dipyrrolo[3,2-g:3′,4′-j][1,5]oxazacyclopentadecine-3,8(2H,5H)-dione]",% Ctrl,[1],100%
same,% Ctrl,[2],58%
same,% Ctrl,[3],100%
same,% Ctrl,[4],94%
same,% Ctrl,[5],89%
same,% Ctrl,[6],100%
same,% Ctrl,[7],87%
same,% Ctrl,[8],92%
same,% Ctrl,[9],100%
same,% Ctrl,[10],92%
same,% Ctrl,[11],88%
same,% Ctrl,[12],94%
same,% Ctrl,[13],1.5%
same,Kd,[13],220 nM
same,% Ctrl,[14],74%
same,% Ctrl,[15],98%
same,Kd,[15],> 10000 nM
same,% Ctrl,[16],94%
same,% Ctrl,[17],89%
same,% Ctrl,[18],86%
same,% Ctrl,[19],92%
same,% Ctrl,[20],91%
same,% Ctrl,[21],95%
same,% Ctrl,[22],93%
same,% Ctrl,[23],97%
same,% Ctrl,[24],82%
same,% Ctrl,[25],91%
same,% Ctrl,[26],86%
same,% Ctrl,[27],95%
same,% Ctrl,[28],94%
same,% Ctrl,[29],87%
same,% Ctrl,[30],67%
same,% Ctrl,[31],87%
same,% Ctrl,[32],92%
same,% Ctrl,[33],78%
same,% Ctrl,[34],100%
same,% Ctrl,[35],98%
same,% Ctrl,[36],92%
same,% Ctrl,[37],80%
same,% Ctrl,[38],93%
same,% Ctrl,[39],93%
same,% Ctrl,[40],95%
same,% Ctrl,[41],95%
"Cc1cc2c([nH]1)/C=C1\C(=O)Nc3ccc(cc31)-c1c(nn(C)c1C)COCCN(C)C2=O [Cpd. 2, [3a(4)Z]-6,9,15,16-tetramethyl-10,11,13,15-tetrahydro-2H-1,17-(ethanediylidene)pyrazolo[4,3-m]dipyrrolo[3,2-f:3′,4′-i][1,4]oxazacyclopentadecine-3,8(5H,9H)-dione]",% Ctrl,[1],93%
same,% Ctrl,[2],93%
same,% Ctrl,[3],61%
same,% Ctrl,[4],100%
same,% Ctrl,[5],80%
same,% Ctrl,[6],100%
same,% Ctrl,[7],55%
same,% Ctrl,[8],83%
same,% Ctrl,[9],100%
same,% Ctrl,[10],100%
same,% Ctrl,[11],80%
same,% Ctrl,[12],22%
same,% Ctrl,[13],0.6%
same,Kd,[13],1.2 nM
same,% Ctrl,[14],100%
same,% Ctrl,[15],91%
same,Kd,[15],2300 nM
same,% Ctrl,[16],100%
same,% Ctrl,[17],62%
same,% Ctrl,[18],100%
same,% Ctrl,[19],100%
same,% Ctrl,[20],97%
same,% Ctrl,[21],100%
same,% Ctrl,[22],48%
same,% Ctrl,[23],50%
same,% Ctrl,[24],100%
same,% Ctrl,[25],83%
same,% Ctrl,[26],78%
same,% Ctrl,[27],100%
same,% Ctrl,[28],19%
same,% Ctrl,[29],57%
same,% Ctrl,[30],95%
same,% Ctrl,[31],98%
same,% Ctrl,[32],67%
same,% Ctrl,[33],100%
same,% Ctrl,[34],74%
same,% Ctrl,[35],100%
same,% Ctrl,[36],60%
same,% Ctrl,[37],47%
same,% Ctrl,[38],92%
same,% Ctrl,[39],100%
same,% Ctrl,[40],100%
same,% Ctrl,[41],63%
"Cc1cc2c([nH]1)/C=C1\C(=O)Nc3c(Cl)cc(cc31)-c1cn(C)nc1COC[C@@H](C)NC2=O [Cpd. 3, [3a(4)Z,10R]-20-chloro-6,10,15-trimethyl-10,11,13,15-tetrahydro-2H-1,17-(ethanediylidene)pyrazolo[4,3-m]dipyrrolo[3,2-f:3′,4′-i][1,4]oxazacyclopentadecine-3,8(5H,9H)-dione]",% Ctrl,[1],89%
same,% Ctrl,[2],80%
same,% Ctrl,[3],93%
same,% Ctrl,[4],99%
same,% Ctrl,[5],100%
same,% Ctrl,[6],99%
same,% Ctrl,[7],92%
same,% Ctrl,[8],93%
same,% Ctrl,[9],94%
same,% Ctrl,[10],99%
same,% Ctrl,[11],94%
same,% Ctrl,[12],100%
same,% Ctrl,[13],0%
same,Kd,[13],3 nM
same,% Ctrl,[14],100%
same,% Ctrl,[15],93%
same,Kd,[15],> 10000 nM
same,% Ctrl,[16],86%
same,% Ctrl,[17],72%
same,% Ctrl,[18],97%
same,% Ctrl,[19],95%
same,% Ctrl,[20],62%
same,% Ctrl,[21],98%
same,% Ctrl,[22],92%
same,% Ctrl,[23],100%
same,% Ctrl,[24],71%
same,% Ctrl,[25],96%
same,% Ctrl,[26],93%
same,% Ctrl,[27],87%
same,% Ctrl,[28],100%
same,% Ctrl,[29],92%
same,% Ctrl,[30],91%
same,% Ctrl,[31],92%
same,% Ctrl,[32],57%
same,% Ctrl,[33],98%
same,% Ctrl,[34],90%
same,% Ctrl,[35],68%
same,% Ctrl,[36],91%
same,% Ctrl,[37],100%
same,% Ctrl,[38],99%
same,% Ctrl,[39],100%
same,% Ctrl,[40],100%
same,% Ctrl,[41],97%
"C[C@@H]1COCc2nn(C)cc2-c2cc(Cl)c3c(c2)/C(=C/c2[nH]ccc2C(=O)N1)C(=O)N3 [Cpd. 4, [3a(4)Z,10R]-20-chloro-10,15-dimethyl-10,11,13,15-tetrahydro-2H-1,17-(ethanediylidene)pyrazolo[4,3-m]dipyrrolo[3,2-f:3′,4′-i][1,4]oxazacyclopentadecine-3,8(5H,9H)-dione]",% Ctrl,[1],79%
same,% Ctrl,[2],76%
same,% Ctrl,[3],84%
same,% Ctrl,[4],91%
same,% Ctrl,[5],99%
same,% Ctrl,[6],95%
same,% Ctrl,[7],84%
same,% Ctrl,[8],93%
same,% Ctrl,[9],97%
same,% Ctrl,[10],100%
same,% Ctrl,[11],93%
same,% Ctrl,[12],100%
same,% Ctrl,[13],0.2%
same,Kd,[13],1.9 nM
same,% Ctrl,[14],100%
same,% Ctrl,[15],57%
same,Kd,[15],1800 nM
same,% Ctrl,[16],78%
same,% Ctrl,[17],77%
same,% Ctrl,[18],98%
same,% Ctrl,[19],83%
same,% Ctrl,[20],68%
same,% Ctrl,[21],96%
same,% Ctrl,[22],94%
same,% Ctrl,[23],100%
same,% Ctrl,[24],75%
same,% Ctrl,[25],99%
same,% Ctrl,[26],90%
same,% Ctrl,[27],88%
same,% Ctrl,[28],100%
same,% Ctrl,[29],86%
same,% Ctrl,[30],93%
same,% Ctrl,[31],100%
same,% Ctrl,[32],100%
same,% Ctrl,[33],48%
same,% Ctrl,[34],87%
same,% Ctrl,[35],64%
same,% Ctrl,[36],79%
same,% Ctrl,[37],90%
same,% Ctrl,[38],92%
same,% Ctrl,[39],100%
same,% Ctrl,[40],79%
same,% Ctrl,[41],91%

# Reference: patent publication US20250074920A1, “MACROCYCLIC COMPOUNDS AND USE AS KINASE INHIBITORS” (BLOSSOMHILL THERAPEUTICS, INC., priority 2022, published 2025)
